Results: PubChem BioAssay (NCI)
“And” between values parts separate entries of the source, which are not always exact repeats. Equal entries are not always repeated.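 48-hour exposure; five concentrations; linearly interpolated endpoints. GI50 is the concentration that inhibits growth by half. TGI: total growth inhibition.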

What was measured:
Assay in all cases: NCI anticancer screen, dose series, 48 h
HOP-62 NSCLC = system: HOP-62 NSCLC
MOLT-4 leukemia = system: MOLT-4 leukemia
ACHN renal = system: ACHN renal
KM12 colon = system: KM12 colon
LOX IMVI melanoma = system: LOX IMVI melanoma
SNB-75 CNS = system: SNB-75 CNS
SF-295 CNS = system: SF-295 CNS
SK-MEL-5 melanoma = system: SK-MEL-5 melanoma

Structure (SMILES) | TGI (HOP-62 NSCLC) | TGI (MOLT-4 leukemia) | TGI (ACHN renal) | TGI (KM12 colon) | TGI (LOX IMVI melanoma) | TGI (SNB-75 CNS) | TGI (SF-295 CNS) | TGI (SK-MEL-5 melanoma) | GI50 (HOP-62 NSCLC) | GI50 (MOLT-4 leukemia) | GI50 (ACHN renal) | GI50 (KM12 colon) | GI50 (LOX IMVI melanoma) | GI50 (SNB-75 CNS) | GI50 (SF-295 CNS) | GI50 (SK-MEL-5 melanoma) [µM]
CCN1CCN=c2c3cc(OC)ccc3n3cnc4ccc1c2c43 | 0.924 µM | 1.57 µM | 0.792 µM | 1.21 µM | 0.776 µM | 1.4 µM | 1.29 µM | 0.784 µM |  |  |  |  |  |  |  | 
COc1cc(-c2nn(-c3cccc(NC(=O)Nc4ccc(Cl)c(Cl)c4)c3)cc2-c2ccncc2)ccc1Cl | 4.9 µM | 4.48 µM | > 50 µM | 2.77 µM | 2.62 µM | 5.17 µM | 2.53 µM | 1.49 µM | 1.44 µM | 1.1 µM | 1 µM | 0.811 µM | 0.953 µM | 1.05 µM | 0.691 µM | 0.741
O=c1cc2oc3cc(O)c(O)cc3c(-c3ccccc3O)c-2cc1O | > 100 µM | > 100 µM | > 100 µM | > 100 µM | 34.2 µM | > 100 µM | 61.3 µM | > 100 µM | 5.62 µM | 14.9 µM | 4.13 µM | 30.7 µM | 4.84 µM | 3.81 µM | 19.6 µM | 19.4
Cc1nc2cnc(N)c(C#Cc3cncc(C(=O)Nc4ccc(CN5CCN(C)CC5)c(C(F)(F)F)c4)c3)c2nc1C | 10.2 µM | 18.3 µM | 5.9 µM | 1.44 µM | 1.05 µM | 3.39 µM | 19.6 µM | 6.07 µM | 0.738 µM | 0.859 µM | 0.564 µM |  | 0.101 µM | 1.35 µM | 3.02 µM | 0.748
O=C(c1ccc(F)c(F)c1Nc1ccc(I)cc1F)N1CC(O)([C@@H]2CCCCN2)C1 | 16.9 µM and > 10 µM | 18.8 µM and > 10 µM | 15.1 µM and > 10 µM | 13.2 µM and > 10 µM | 2.15 µM and 1.7 µM | 16 µM and > 10 µM | 32.4 µM and > 10 µM | 8.56 µM and > 10 µM | 0.349 µM and 0.067 µM | 4.62 µM and 5.26 µM | 0.463 µM and 0.637 µM | < 0.0376 µM and 0.28 µM | 0.0321 µM and 0.0191 µM | 2.85 µM and 0.574 µM | 15.7 µM and > 10 µM | 
COc1c(OC)c(OC)c(C(=O)/C=C/c2ccccc2)c(OC)c1OC |  | 36.3 µM | 28.9 µM | 16.8 µM | 36.7 µM | 23.1 µM | 29.9 µM | 26.3 µM |  |  |  |  |  |  |  | 
C=CCCCCCCCCCCC1(O)C=CC2=[N+](CCCCCN=C(N)N)CCCN21 (stereo unspecified) | 32 µM | 20.4 µM | 24.5 µM | 18.7 µM | 26 µM | 25.9 µM | 24.9 µM | 25.1 µM | 8.68 µM | 4.4 µM | 11.5 µM | 3.42 µM | 6.3 µM | 8.62 µM | 7.2 µM | 9.93
Oc1cc(O)c2c(c1)OC(c1ccc(O)c(O)c1)C(OC1(c3cc(O)c(O)c(O)c3)Oc3cc(O)cc(O)c3C(O)C1O)C2 (stereo unspecified) | 56.2 µM | 52.8 µM | > 100 µM | > 70.9 µM | 38.4 µM | 60.8 µM | > 100 µM | 34 µM |  |  |  |  |  |  |  | 
